Test results: patent US20250275539A1, “APYRASE INHIBITORS” (Texas Crop Science, Inc., priority 2024, published 2025)

Each compound was assayed on apyrase (assay: Apyrase inhibition assay (screen for apyrase inhibitors, phosphate release read at 630 nm)). Details: inhibitor conc at 1 mM (10 μl added), 3 mM ATP, pH 6.5, room temperature 1 hr.
Format: biochemical
Procedure: Apyrase inhibitors useful as enhancers of pesticidal activity are assessed using an in vitro assay. The method of Windsor, Bio Techniques 33:1024-1030 (November 2002) was used as follows
• 96 well plates were used for the assay: (Greiner bio-one: REF-655901-96 well, PS, F-bottom, Clear, Non-binding)
• Reaction Buffer: 60 mM Hepes; 3 mM MgCl2, 3 mM CaCl2) and 3 mM ATP (pH 6.5) • Development Buffer A: 2% aqueous ammonium molybdate • Development Buffer B: 11% ascorbic acid in 37.5% TCA in water • Stop buffer C: 2% trisodium citrate in 2% acetic acid solution in water
• Add 100 μl of reaction buffer to each well. • Add 10 μl of DMSO (control) or inhibitor/compound or compounds such as N1915 or orthovanadate to each well. (use inhibitor conc at 1 mM; orthovanadate at 2 mM and N1915 at 1 mM) • Add 10 μl of apyrase (concentration based on optimization—Dilute 1 U/μl enzyme to different concentrations such as 0.1 U, 0.05 U, 0.0025, 0.001 U, 0.0005 U—to find a good range) • Incubate plate at room temperature for 1 hr • Mix development buffer A and B in the ratio of 1:1.5 (just before use). • Add 50 μl of A: B mix in each well (incubate for 2 mins) • Add 50 μl of C in each well • Measure/Read Absorbance of plate @630 nm
Inhibitory data for the apyrase assay described above are provided for selected compounds in Table 3. D is inhibition of 0% to 10%, C is inhibition from 10% to 20%, B is inhibition from 20% to 30%, and A is inhibition above 30%. Blank entries signify compounds that were not tested.

Question: For COc1ccc(OC)c(NS(=O)(=O)c2ccc(-c3ccccc3)cc2)c1 [Compound A-4, N-(2,5-dimethoxyphenyl)-[1,1′-biphenyl]-4-sulfonamide], which Inhibition is on record?
Answer: B (B is inhibition from 20% to 30%)

Question: CCCc1ccc(S(=O)(=O)Nc2ccccc2N2CCCC2=O)cc1 [Compound A-6, N-(2-(2-oxopyrrolidin-1-yl)phenyl)-4-propylbenzenesulfonamide] was tested. Which Inhibition did it give?
Answer: D (D is inhibition of 0% to 10%)

Question: How did the Inhibition turn out when CCCc1ccc(S(=O)(=O)Nc2cccc(N3CCCC3=O)c2)cc1 [Compound A-7, N-(3-(2-oxopyrrolidin-1-yl)phenyl)-4-propylbenzenesulfonamide] was run?
Answer: C (C is inhibition from 10% to 20%)

Question: O=S(=O)(c1ccc(-c2ccccc2)cc1)N1CCN(C2CCOCC2)CC1 [Compound A-11, 1-([1,1′-biphenyl]-4-ylsulfonyl)-4-(tetrahydro-2H-pyran-4-yl)piperazine] was tested. Which Inhibition did it give?
Answer: D (D is inhibition of 0% to 10%)

Question: Which Inhibition does the source give for COC(=O)c1ccc(S(=O)(=O)Nc2cccc(C)c2)cc1 [Compound A-12, methyl 4-(N-(m-tolyl)sulfamoyl)benzoate] here?
Answer: C (C is inhibition from 10% to 20%)

Question: With O=S(=O)(Nc1nnc[nH]1)c1ccc(-c2ccccc2)cc1 [Compound A-13, N-(4H-1,2,4-triazol-3-yl)-[1,1′-biphenyl]-4-sulfonamide] as the compound, how does the Inhibition read?
Answer: D (D is inhibition of 0% to 10%)

Question: Which Inhibition does the source give for O=S(=O)(Nc1cc(-c2cccnc2)n[nH]1)c1ccc(-c2ccccc2)cc1 [Compound A-14, N-(3-(pyridin-3-yl)-1H-pyrazol-5-yl)-[1,1′-biphenyl]-4-sulfonamide] here?
Answer: D (D is inhibition of 0% to 10%)

Question: Cl.NCCNS(=O)(=O)c1ccc(-c2ccccc2)cc1 [Compound A-15, N-(2-aminoethyl)-[1,1′-biphenyl]-4-sulfonamide hydrochloride] was tested. Which Inhibition did it give?
Answer: D (D is inhibition of 0% to 10%)

Question: Which Inhibition does the source give for CCCc1ccc(S(=O)(=O)Nc2c(F)cccc2CO)cc1 [Compound A-16, N-(2-fluoro-6-(hydroxymethyl)phenyl)-4-propylbenzenesulfonamide] here?
Answer: C (C is inhibition from 10% to 20%)

Question: Cc1cccc(NS(=O)(=O)c2ccc(C(N)=O)cc2)c1 [Compound A-18, 4-(N-(m-tolyl)sulfamoyl)benzamide] was tested. Which Inhibition did it give?
Answer: C (C is inhibition from 10% to 20%)

Question: With CCCc1ccc(S(=O)(=O)Nc2ccc(CC(C)C(=O)O)cc2)cc1 (stereo not drawn) [Compound A-19, 2-methyl-3-(4-((4-propylphenyl)sulfonamido)phenyl)propanoic acid] as the compound, how does the Inhibition read?
Answer: B (B is inhibition from 20% to 30%)

Question: For O=S(=O)(Nc1ncccn1)c1ccc(-c2ccccc2)cc1 [Compound A-20, N-(pyrimidin-2-yl)-[1,1′-biphenyl]-4-sulfonamide], which Inhibition is on record?
Answer: D (D is inhibition of 0% to 10%)

Question: CCCc1ccc(S(=O)(=O)Nc2ccccc2-n2cnnc2C)cc1 [Compound A-22, N-(2-(3-methyl-4H-1,2,4-triazol-4-yl)phenyl)-4-propylbenzenesulfonamide] was tested. Which Inhibition did it give?
Answer: D (D is inhibition of 0% to 10%)

Question: Which Inhibition does the source give for Cn1ccnc(NS(=O)(=O)c2ccc(-c3ccccc3)cc2)c1=O [Compound A-23, N-(4-methyl-3-oxo-3,4-dihydropyrazin-2-yl)-[1,1′-biphenyl]-4-sulfonamide] here?
Answer: B (B is inhibition from 20% to 30%)

Question: For N#Cc1cnc(Cl)c(NS(=O)(=O)c2ccc(-c3ccccc3)cc2)c1 [Compound A-24, N-(2-chloro-5-cyanopyridin-3-yl)-[1,1′-biphenyl]-4-sulfonamide], which Inhibition is on record?
Answer: C (C is inhibition from 10% to 20%)

Question: How did the Inhibition turn out when CCCc1ccc(S(=O)(=O)Nc2cc(C(=O)OC)ccc2S(N)(=O)=O)cc1 [Compound A-25, methyl 3-((4-propylphenyl)sulfonamido)-4-sulfamoylbenzoate] was run?
Answer: D (D is inhibition of 0% to 10%)

Question: With CCCc1ccc(S(=O)(=O)Nc2ccc(O)c(C(=O)O)c2)cc1 [Compound A-26, 2-hydroxy-5-((4-propylphenyl)sulfonamido) benzoic acid] as the compound, how does the Inhibition read?
Answer: B (B is inhibition from 20% to 30%)

Question: Which Inhibition does the source give for CCCc1ccc(S(=O)(=O)Nc2ccccc2Sc2nncn2C)cc1 [Compound A-27, N-(2-((4-methyl-4H-1,2,4-triazol-3-yl)thio)phenyl)-4-propylbenzenesulfonamide] here?
Answer: D (D is inhibition of 0% to 10%)

Question: CCCc1ccc(S(=O)(=O)Nc2cccc(-c3nnnn3C3CC3)c2)cc1 [Compound A-28, N-(3-(1-cyclopropyl-1H-tetrazol-5-yl)phenyl)-4-propylbenzenesulfonamide] was tested. Which Inhibition did it give?
Answer: D (D is inhibition of 0% to 10%)

Question: Which Inhibition does the source give for CCCc1ccc(S(=O)(=O)Nc2ccc(N3CCCS3(=O)=O)cc2)cc1 [Compound A-30, N-(4-(1,1-dioxidoisothiazolidin-2-yl)phenyl)-4-propylbenzenesulfonamide] here?
Answer: C (C is inhibition from 10% to 20%)

Question: Which Inhibition does the source give for CCCc1ccc(S(=O)(=O)Nc2ccc(NC(=O)C3CC3)cc2)cc1 [Compound A-31, N-(4-((4-propylphenyl)sulfonamido)phenyl)cyclopropanecarbox-amide] here?
Answer: D (D is inhibition of 0% to 10%)

Question: Which Inhibition does the source give for CCCc1ccc(S(=O)(=O)Nc2ccc(S(=O)(=O)CC)cc2)cc1 [Compound A-32, N-(4-(ethylsulfonyl)phenyl)-4-propylbenzenesulfonamide] here?
Answer: C (C is inhibition from 10% to 20%)

Question: NC1CCN(S(=O)(=O)c2ccc(-c3ccccc3)cc2)CC1 [Compound A-33, 1-([1,1′-biphenyl]-4-ylsulfonyl)piperidin-4-amine] was tested. Which Inhibition did it give?
Answer: B (B is inhibition from 20% to 30%)

Question: CCCc1ccc(S(=O)(=O)Nc2ccc(F)c(NC(C)=O)c2)cc1 [Compound A-35, N-(2-fluoro-5-((4-propylphenyl)sulfonamido)phenyl)acetamide] was tested. Which Inhibition did it give?
Answer: D (D is inhibition of 0% to 10%)

Question: With O=S(=O)(NCc1ccc2c(c1)OCO2)c1ccc(-c2ccccc2)cc1 [Compound A-36, N-(benzo[d][1,3]dioxol-5-ylmethyl)-[1,1′-biphenyl]-4-sulfonamide] as the compound, how does the Inhibition read?
Answer: A (A is inhibition above 30%)

Question: For CCCc1ccc(S(=O)(=O)Nc2ccc(O)c(NC(C)=O)c2)cc1 [Compound A-38, N-(2-hydroxy-5-((4-propylphenyl)sulfonamido)phenyl)acetamide], which Inhibition is on record?
Answer: C (C is inhibition from 10% to 20%)

Question: With CCCc1ccc(S(=O)(=O)Nc2ccccc2-n2cc(C(=O)OC)nn2)cc1 [Compound A-39, methyl 1-(2-((4-propylphenyl)sulfonamido)phenyl)-1H-1,2,3-triazole-4-carboxylate] as the compound, how does the Inhibition read?
Answer: D (D is inhibition of 0% to 10%)

Question: Which Inhibition does the source give for CCCc1ccc(S(=O)(=O)Nc2ccc(-c3ccnc(C)n3)cc2)cc1 [Compound A-40, N-(4-(2-methylpyrimidin-4-yl)phenyl)-4-propylbenzenesulfonamide] here?
Answer: D (D is inhibition of 0% to 10%)

Question: With CCCc1ccc(S(=O)(=O)Nc2ccccc2CC(=O)NC)cc1 [Compound A-41, N-methyl-2-(2-((4-propylphenyl)sulfonamido)phenyl)acetamide] as the compound, how does the Inhibition read?
Answer: A (A is inhibition above 30%)

Question: CCCc1ccc(S(=O)(=O)Nc2cccc(F)c2C(=O)O)cc1 [Compound A-42, 2-fluoro-6-((4-propylphenyl)sulfonamido) benzoic acid] was tested. Which Inhibition did it give?
Answer: B (B is inhibition from 20% to 30%)

Question: With CCCc1ccc(S(=O)(=O)Nc2ccc(F)cc2C(=O)O)cc1 [Compound A-43, 5-fluoro-2-((4-propylphenyl)sulfonamido) benzoic acid] as the compound, how does the Inhibition read?
Answer: C (C is inhibition from 10% to 20%)

Question: How did the Inhibition turn out when CCCc1ccc(S(=O)(=O)Nc2ccc(C(=O)O)cc2)cc1 [Compound A-44, 4-((4-propylphenyl)sulfonamido) benzoic acid] was run?
Answer: D (D is inhibition of 0% to 10%)

Question: Which Inhibition does the source give for CCCc1ccc(S(=O)(=O)Nc2cc(OC)c(OC)cc2C(=O)O)cc1 [Compound A-45, 4,5-dimethoxy-2-((4-propylphenyl)sulfonamido) benzoic acid] here?
Answer: C (C is inhibition from 10% to 20%)

Question: CCCc1ccc(S(=O)(=O)Nc2ccc(CC(=O)O)cc2)cc1 [Compound A-46, 2-(4-((4-propylphenyl)sulfonamido)phenyl)acetic acid] was tested. Which Inhibition did it give?
Answer: A (A is inhibition above 30%)

Question: CCCc1ccc(S(=O)(=O)Nc2cc(Cl)ccc2N2CCOCC2)cc1 [Compound A-47, N-(5-chloro-2-morpholinophenyl)-4-propylbenzenesulfonamide] was tested. Which Inhibition did it give?
Answer: B (B is inhibition from 20% to 30%)

Question: CCCc1ccc(S(=O)(=O)Nc2ccccc2CC)cc1 [Compound A-48, N-(2-ethylphenyl)-4-propylbenzenesulfonamide] was tested. Which Inhibition did it give?
Answer: B (B is inhibition from 20% to 30%)

Question: CCCc1ccc(S(=O)(=O)Nc2cc(Cl)c(OC)cc2OC)cc1 [Compound A-49, N-(5-chloro-2,4-dimethoxyphenyl)-4-propylbenzenesulfonamide] was tested. Which Inhibition did it give?
Answer: D (D is inhibition of 0% to 10%)

Question: With CCCc1ccc(S(=O)(=O)Nc2ccc(S(C)(=O)=O)cc2)cc1 [Compound A-50, N-(4-(methylsulfonyl)phenyl)-4-propylbenzenesulfonamide] as the compound, how does the Inhibition read?
Answer: C (C is inhibition from 10% to 20%)

Question: How did the Inhibition turn out when CCCc1ccc(S(=O)(=O)Nc2c(F)cc(F)cc2Br)cc1 [Compound A-51, N-(2-bromo-4,6-difluorophenyl)-4-propylbenzenesulfonamide] was run?
Answer: D (D is inhibition of 0% to 10%)
